Reference: PMC8496750, “Identification of the organic anion transporting polypeptides responsible for the hepatic uptake of the major metabolite of epyrifenacil, S‐3100‐CA, in mice” (Pharmacology Research & Perspectives, 2021)
Where two headings read alike, the source gives them in different places.

Experiments:
[1] = Blood ^14C‐concentrations study; assay type: in vivo, Crl:CD1(ICR) mice; conditions: 1 mg/kg single oral
Description: Crl:CD1(ICR) mice at the age of 7 weeks were purchased from Charles River Laboratories Japan, Inc., Hino Breeding Center. The mice at the age of 8 or 9 weeks were dosed after completing a 7‐day quarantine period and an additional 0‐ to 7‐day acclimatization period. All animal experiments were conducted in accordance with the Guidance for the Care and Use of Laboratory Animals in our laboratory, which corresponds to the Guidelines for Proper Conduct of Animal Experiments (Science Council of Japan). Animals were maintained under constant environmental conditions: room temperature, 21−25°C; relative humidity, 55% ±15%; ventilation, 10 air exchanges per hour; and artificial lighting, from 8:00 am to 8:00 pm. The animals were provided with pelleted diet and water ad libitum. […] All animals were euthanized by bleeding from the abdominal artery under anesthesia.
[^14C]Epyrifenacil was isotopically diluted with the unlabeled test compound to adjust the specific activity to 5.00 MBq/mg. After evaporation of the solvent under nitrogen gas flow, labeled material was suspended in 0.5% (w/v) methylcellulose solution at a concentration of 1 mg/5 ml by grinding in a mortar. The suspension was stored frozen until the start of dosing. […] These dosing suspensions were stored in a refrigerator until dosing commenced.
Two mice per sex at 8 weeks old were given a single oral dose of [^14C]epyrifenacil at 1 mg/kg. Approximately 0.06–0.08 g of blood sample was periodically taken from the saphenous vein at 1, 2, 4, and 8 h after administration, and transferred to vials to measure the radioactivity in whole blood. […] AUC0‐∞ was calculated as the sum of AUC0‐8 h and AUC8 h‐∞. AUC0‐8 h was obtained using a trapezoidal rule, and AUC8 h‐∞ was calculated with a mono‐exponential equation describing the ^14C‐disappearance phase.

[2] = Metabolite analysis in plasma, liver, and kidney (TLC); assay type: in vivo, Crl:CD1(ICR) mice; conditions: for concentration at 2 h / Kp at 2 h: Crl:CD1(ICR), mouse, oral; for Kp at 2 h: liver and plasma, read-out: Liver/plasma ratio of S‐3100‐CA; for Kp at 2 h / S‐3100‐CA concentration in liver: 2 h
Excerpt: Precoated silica gel 60 F254 chromatoplate (20 × 20 cm, 0.25‐ or 0.5‐mm layer thickness, Merck KGaA) was used for two‐dimensional thin layer chromatography (2D‐TLC) analysis. The solvent systems were ethyl formate/formic acid (95/5, v/v) for the first dimension, and ethyl acetate/acetic acid (95/5, v/v) for the second dimension. The radioactivity on the TLC plates was detected by autoradiography using an imaging plate processed with a fluoro‐image analyzer (FLA‐9500, GE Healthcare). The identity of the metabolites was confirmed by co‐chromatography in comparison with authentic metabolite standards.
Three mice per sex at 8 weeks old were given a single oral dose of [^14C]epyrifenacil at 1 mg/kg with or without co‐administration of OATP inhibitors. […] At 2 h after administration of [^14C]epyifenacil, the animals were euthanized by whole blood collection from the abdominal aorta under anesthesia with isoflurane. The sampling time point was selected as the time around T max based on the result of the blood ^14C‐concentration study. Then, the liver and kidney were dissected out, and the amount of ^14C was measured. Aliquots of heparinized blood samples were separated into blood cells and plasma by centrifugation at 2000g for 10 min at 4°C. The total weight of the liver and kidney was determined for each animal. Two aliquots of plasma and tissue samples (approximately 0.05–0.1 g) were weighed in a glass vial, and the radioactivity was measured.
Approximately 0.3 g of liver, kidney, and plasma samples were pooled, respectively, for each dose and gender to obtain samples for analysis. Pooled liver, kidney, and plasma (ca. 1 g each) samples were homogenized with an approximately 3‐fold volume (v/w) of methanol using the mixer mill MM400 (5 min, 25 cycles/second, Retsch GmbH) and centrifuged (10 000g, 5 min, 4°C) to separate the supernatants from the residues. The extraction was repeated one additional time. The supernatants obtained were pooled and labeled liver, kidney, and plasma extracts. These samples were concentrated and then subjected to TLC analysis. For calculation of extraction efficacy, the post‐extraction solids (PESs) from the tissues and plasma extracts were sampled in low potassium glass vials. PESs were solubilized with 3 M potassium hydroxide solution (approximately 1 ml), then bleached with 30% hydrogen peroxide solution, and finally mixed with 10 ml of Hionic‐Fluor to measure the radioactivity.

CCOC(=O)COc1ncccc1Oc1cc(-n2c(=O)cc(C(F)(F)F)n(C)c2=O)c(F)cc1Cl [Epyrifenacil, ethyl[(3‐{2‐chloro‐4‐fluoro‐5‐[3‐methyl‐2,6‐dioxo‐4‐(trifluoromethyl)‐3,6‐dihydropyrimidin‐1(2H)‐yl]phenoxy}pyridin‐2‐yl)oxy]acetate]
^14C‐Concentration in blood ([1]; 1 h, Female Animal_1): 0.127 µg eq. of epyrifenacil/g
^14C‐Concentration in blood ([1]; 1 h, Female Animal_2): 0.073 µg eq. of epyrifenacil/g
^14C‐Concentration in blood ([1]; 1 h, Male Animal_1): 0.030 µg eq. of epyrifenacil/g
^14C‐Concentration in blood ([1]; 1 h, Male Animal_2): 0.030 µg eq. of epyrifenacil/g
^14C‐Concentration in blood ([1]; 2 h, Female Animal_1): 0.111 µg eq. of epyrifenacil/g
^14C‐Concentration in blood ([1]; 2 h, Female Animal_2): 0.064 µg eq. of epyrifenacil/g
^14C‐Concentration in blood ([1]; 2 h, Male Animal_1): 0.031 µg eq. of epyrifenacil/g
^14C‐Concentration in blood ([1]; 2 h, Male Animal_2): 0.034 µg eq. of epyrifenacil/g
^14C‐Concentration in blood ([1]; 4 h, Female Animal_1): 0.076 µg eq. of epyrifenacil/g
^14C‐Concentration in blood ([1]; 4 h, Female Animal_2): 0.060 µg eq. of epyrifenacil/g
^14C‐Concentration in blood ([1]; 4 h, Male Animal_1): 0.028 µg eq. of epyrifenacil/g
^14C‐Concentration in blood ([1]; 4 h, Male Animal_2): 0.051 µg eq. of epyrifenacil/g
^14C‐Concentration in blood ([1]; 8 h, Female Animal_1): 0.045 µg eq. of epyrifenacil/g
^14C‐Concentration in blood ([1]; 8 h, Female Animal_2): 0.061 µg eq. of epyrifenacil/g
^14C‐Concentration in blood ([1]; 8 h, Male Animal_1): 0.024 µg eq. of epyrifenacil/g
^14C‐Concentration in blood ([1]; 8 h, Male Animal_2): 0.033 µg eq. of epyrifenacil/g
C max of ^14C in blood ([1]; female mice): 0.100 μg eq. of epyrifenacil/g
C max of ^14C in blood ([1]; male mice): 0.040 μg eq. of epyrifenacil/g

Cn1c(C(F)(F)F)cc(=O)n(-c2cc(Oc3cccnc3OCC(=O)O)c(Cl)cc2F)c1=O [S‐3100‐CA]
concentration at 2 h ([2]; kidney, with rifampicin (OATP inhibitor) 200 mg/kg p.o., Female, 2 h after [^14C]Epyrifenacil 1 mg/kg p.o. + Rifampicin 200 mg/kg p.o., read-out: Metabolite concentration, Kidney): 50 ng/g
concentration at 2 h ([2]; kidney, with rifampicin (OATP inhibitor) 200 mg/kg p.o., Male, 2 h after [^14C]Epyrifenacil 1 mg/kg p.o. + Rifampicin 200 mg/kg p.o., read-out: Metabolite concentration, Kidney): 73 ng/g
concentration at 2 h ([2]; kidney, Female, 2 h after [^14C]Epyrifenacil 1 mg/kg p.o., read-out: Metabolite concentration, Kidney): 96 ng/g
concentration at 2 h ([2]; kidney, Male, 2 h after [^14C]Epyrifenacil 1 mg/kg p.o., read-out: Metabolite concentration, Kidney): 55 ng/g
concentration at 2 h ([2]; liver, with rifampicin (OATP inhibitor) 200 mg/kg p.o., Female, 2 h after [^14C]Epyrifenacil 1 mg/kg p.o. + Rifampicin 200 mg/kg p.o., read-out: Metabolite concentration, Liver): 660 ng/g
concentration at 2 h ([2]; liver, with rifampicin (OATP inhibitor) 200 mg/kg p.o., Male, 2 h after [^14C]Epyrifenacil 1 mg/kg p.o. + Rifampicin 200 mg/kg p.o., read-out: Metabolite concentration, Liver): 1370 ng/g
concentration at 2 h ([2]; liver, Female, 2 h after [^14C]Epyrifenacil 1 mg/kg p.o., read-out: Metabolite concentration, Liver): 3520 ng/g
concentration at 2 h ([2]; liver, Male, 2 h after [^14C]Epyrifenacil 1 mg/kg p.o., read-out: Metabolite concentration, Liver): 4740 ng/g
concentration at 2 h ([2]; plasma, with rifampicin (OATP inhibitor) 200 mg/kg p.o., Female, 2 h after [^14C]Epyrifenacil 1 mg/kg p.o. + Rifampicin 200 mg/kg p.o., read-out: Metabolite concentration, Plasma): 143 ng/g
concentration at 2 h ([2]; plasma, with rifampicin (OATP inhibitor) 200 mg/kg p.o., Male, 2 h after [^14C]Epyrifenacil 1 mg/kg p.o. + Rifampicin 200 mg/kg p.o., read-out: Metabolite concentration, Plasma): 76 ng/g
concentration at 2 h ([2]; plasma, Female, 2 h after [^14C]Epyrifenacil 1 mg/kg p.o., read-out: Metabolite concentration, Plasma): 68 ng/g
concentration at 2 h ([2]; plasma, Male, 2 h after [^14C]Epyrifenacil 1 mg/kg p.o., pooled samples, read-out: Metabolite concentration, Plasma): 54 ng/g
Share of ^14C in liver ([2]; all dose groups): over 70%
Kp at 2 h ([2]; female, 1 mg/kg, females, epyrifenacil 1 mg/kg p.o. without inhibitors): 52
Kp at 2 h ([2]; female, females, DGX co‐administrated (oral or intraperitoneal)): 50 to 56
Kp at 2 h ([2]; female, females, RIF co‐administrated): 5
S‐3100‐CA concentration in liver ([2]; females, RIF co‐administrated): 0.660 ppm
Kp at 2 h ([2]; male, 1 mg/kg, males, epyrifenacil 1 mg/kg p.o. without inhibitors): 88
Kp at 2 h ([2]; male, males, DGX co‐administrated (oral or intraperitoneal)): 89 to 139
Kp at 2 h ([2]; male, males, RIF co‐administrated): 18
S‐3100‐CA concentration in liver ([2]; males, RIF co‐administrated): 1.371 ppm
